This note sets out measurements from patent US7371811B2, “Schizophrenia associated genes, proteins and biallelic markers” (Serono Genetics Institute S.A., priority 1998, dated 2008).

For this test, the system named is Male C57BL6 adult mice. In words: Effect of sbg1 peptide on behavior of mice (locomotor and stereotypy movements). The settings on record: 50 μg peptide intraperitoneally in 200 μl saline, n=4/peptide, FIG. 18. It counts as in vivo. How it is done:
In one example, the present inventors have tested sbg1 peptides by injection into mice. An sbg1 peptide comprising amino acid positions 124 to 153 of SEQ ID No 34 was injected peritoneally into adult mice as described herein in Example 7. […] Because the onset of stereotypy was variable, data are presented as the average of stereotypy for observations over the entire time period.
Animals: Male C57BL6 adult mice (approximately 6 weeks old)
Peptides: sbg1 peptide: • NH2-[…]-COOH (SEQ ID NO:232) • Control 1: NH2-[…]-COOH (SEQ ID NO:233) • Control 2: NH2-MHMKTILGPRLGLGE-COOH (SEQ ID NO:234)
Protocol: • 1. Inject mice intraperitoneally with 50 μg peptide in 200 μl sterile physiological saline (n=4/peptide). • 2. Place mice in clean empty cages containing no litter, and only a small test tube rack. The cages are covered with a plastic sheet to enable taking photographs and video-tracking. • 3. Observe behavior for one minute from t=5 min up to t=45 min, as indicated. Any locomoter or stereotypy movements were recorded as positive over 1 min intervals. Locomoter movements include climbing, and rearing while stereotypy movements include grooming and scratching. At the end of the experiment, the number of movements were added up for each animal.
Results: • 1. […]

For “NH2-QPLERMWTCNYNQQKDQSCNHKEITSTKAE-COOH (H-QPLERMWTCNYNQQKDQSCNHKEITSTKAE-OH; cysteine pairing not given here; listed as Homo sapiens) [sbg1 peptide]”, the “frequency of movements (locomotor activity) over the time course of the experiment” value (average movements at 5, 10, 15 min compared with 30, 35, 40, 45 min) is reported as “decrease in the frequency of their movements”. In addition, where the note is “observed t=5 to 45 min, effect most prominent during the last period”, the “stereotypy (grooming and scratching movements)” value was “increased stereotypy”.
